In US20140243350A1, “USE OF SEROTONIN RECEPTOR AGONISTS FOR TREATMENT OF MOVEMENT DISORDERS” (CONTERA PHARMA APS, priority 2011, published 2014):
Read-outs that look alike come from different tables or passages of the source.

Columns and labels:
[1] = tested on: patients treated with neuroleptics; conditions: open study, relative high doses; cited from earlier work
LID model rats = conditions: buspirone alone 0.2 mg/kg s.c., 11 min before AIM test; FIG. 8A
[2] = tested on: unilaterally 6-OHDA-lesioned rats; conditions: buspirone alone 0.5 mg/kg i.p.
Text: 6-OHDA (6-hydroxydopamine) is a neurotoxin that selectively kills dopaminergic and noradrenergic neurons and induces a reduction of dopamine levels in the brain. […] These are axial, limb and oral movements that occur only on the body side that is […] to the lesion.
In the mild cases: lateral flexion of the neck or torsional movements of the upper trunk towards the side contralateral to the lesion. With repeated injection of L-DOPA, this movement may develop into a pronounced and continuous dystonia-like axial torsion. […] In mild cases: hyperkinetic, jerky stepping movements of the forelimb contralateral to the lesion, or small circular movements of the forelimb to and from the snout.

naïve rats = conditions: retigabine alone 10 mg/kg i.p.; for total move distance (locomotor activity) in open field test: FIG. 6; for total velocity (locomotor activity) in open field test: FIG. 7; for locomotor activity (moving distance and velocity) in open field test: FIGS. 6 and 7
Procedure: Species: 60 Sprague-Dawley male rats (180-220 g, bred in house, originally from SLAC Labortory Animal Co. Ltd) at 9-week of age.
Administration and dose regimen for the groups of animals (each comprising 10 rats):
Vehicle: 10% Tween 80, i.p., 30 min before test, n=10. Buspirone 1: Buspirone (From Sigma, Cat. No. B7148, Lot. No. 042K1763Z) 1 mg/kg, i.p. 30 min before test, n=10. Buspirone 2: Buspirone 2 mg/kg, i.p. 30 min before test, n=10.
Rats were put in open-field chambers (dimensions 40 cm×40 cm×40 cm) 30 minutes after dosing. After a 15 minutes habituation, locomotion were recorded and analyzed by Enthovision Video Tracking Software (Noldus Information Technology, Netherlands) for 60 minutes. All locomotor activities were done during dark phase and to eliminate olfactory cues, the arena was thoroughly cleaned with 70% v/v ethanol between each test.
Data statistics: The total locomotor activity is expressed as total moved distance (cm) and average velocity (cm/s) every 10 minutes during 60 minutes. The data were analyzed using One-Way ANOVA and the Tukey post-hoc test. The locomotor activity in six time point is expressed as moved distance (cm) and average velocity (cm/s) every 10 minutes. The data were analyzed using One-Way ANOVA and the Tukey post-hoc test in each time point.

O=C1CC2(CCCC2)CC(=O)N1CCCCN1CCN(c2ncccn2)CC1 [buspirone, 8-[4-(4-pyrimidin-2-ylpiperazin-1-yl)butyl]-8-azaspiro[4.5]decane-7,9-dione]
effects on tardive dyskinesia, Parkinsonism and akathisia [1]: has effects
AUC (10-190 min) of total AIM (Lo+Ax+Li+Ol) (LID model rats): small effect
abnormal involuntary movements (AIM), sum of Lo, Ax, Li and Ol scores per testing session, time course ([2]; FIG. 1, vs vehicle): partially reduced
AUC (20-60 min) of total AIM (Lo+Ax+Li+Ol) ([2]; FIG. 2): partially reduced
AUC (20-60 min) of locomotive limb (Li) AIM scores ([2]; FIG. 3): did not have an effect
AUC (20-60 min) of locomotive Axial (Ax) AIM scores ([2]; FIG. 4): partially reduced
AUC (20-60 min) of Orolingual (OL) AIM scores ([2]; FIG. 5): significantly reduced

CCOC(=O)Nc1ccc(NCc2ccc(F)cc2)cc1N [retigabine, N-(2-amino-4-(4-fluorobenzylamino)-phenylcarbamic acid) ethyl ester]
total move distance (locomotor activity) in open field test (naïve rats; after 20 to 60 minutes): no significant differences
total velocity (locomotor activity) in open field test (naïve rats; after 20 to 60 minutes): no significant differences
total velocity (locomotor activity) in open field test (naïve rats; after 10 minutes, vs vehicle): significantly inhibit
locomotor activity (moving distance and velocity) in open field test (naïve rats; after 20 mins): no significant difference
locomotor activity (moving distance and velocity) in open field test (naïve rats; initially (after 10 min)): significantly inhibit
total move distance (locomotor activity) in open field test (naïve rats; initially, vs vehicle): significantly inhibit
